Experimental data as given in US8507448B2, “Human CD154-binding synthetic peptide and uses thereof” (Fresenius Medical Care Deutschland G.m.b.H., priority 2007, dated 2013).
Positions of bridges follow the written chain, without caps; N, C: chain ends. Residues, ends and D or L forms follow the SMILES beside them. No end group written: not given here.

Key:
human platelets = experiment: Platelet aggregation assay (aggregometer); format: cell-based
Method: Platelet aggregation was measured with an aggregometer, as the increase in light transmission compared to the control. Priming of human platelets with the anti-human CD154 antibody in combination with rhsCD154 increases platelet aggregation upon stimulation with ADP 0.5 μM.
Finally, one of the major advantages of peptide 4.10 is its lack of reactivity towards human platelets. It is know that in the past, a number of clinical trials carried out to test promising anti-CD154 monoclonal antibodies were suddenly discontinued due to dramatic prothrombotic side effects (Kelsoe G. et al, J. Clin. Invest. 2003). The hypothesis is that the anti-CD154 antibodies had triggered a cross-reaction on the surface of human platelets expressing the receptor for the Fc immunoglobulin fraction (FcR) and, after activation, the CD154 molecule. Thus, the inventors tested the effect of peptide 4.10 on platelets, by a platelet aggregation assay. Such experiments were carried out by the use of a thermostatic aggregometer, equipped with a magnetic stirrer and a real time optical density meter. Platelet aggregation was evaluated as the change in optical density versus the reference sample (blank). The experiments were carried out on platelets extracted from peripheral whole blood of healthy donors collected in tubes containing 5 U/ml heparin. In particular, the platelet enriched plasma (PRP), was obtained by whole blood centrifugation at 900 rpm for 20 minutes, while the platelet poor plasma (PPP), used as the reference sample, was obtained collecting the supernatant after another centrifugation at 3000 rpm for 10 minutes. […] Similar results were obtained inducing platelet aggregation with 0.3 U/ml thrombin.

[1] = system: control J558 cells (CD154-negative); experiment: Binding to control CD154-negative J558 cells by flow cytometry; parameters: species or system murine; details: -His6 peptides
[2] = molecular target: T1, human CD154 expressed on the surface of J558L cells (Homo sapiens, UniProt P29965); experiment: Binding of -His6-tagged peptides to J558L CD154+ cells by flow cytometry; details: -His6 peptides 60 μM, 30 minutes at room temperature
T1 construct: expressed in transfected cells; host or cells: J558L murine myeloma cell line transfected with human CD154
T1 sequence (P29965 1-261): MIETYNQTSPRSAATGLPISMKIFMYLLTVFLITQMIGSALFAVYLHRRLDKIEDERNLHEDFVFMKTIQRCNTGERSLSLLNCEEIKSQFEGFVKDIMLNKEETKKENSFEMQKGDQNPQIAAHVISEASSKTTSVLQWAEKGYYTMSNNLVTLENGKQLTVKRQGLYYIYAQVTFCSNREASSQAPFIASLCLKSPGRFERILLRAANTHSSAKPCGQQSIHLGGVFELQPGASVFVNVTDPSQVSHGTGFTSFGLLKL
Method: FIG. 2 represents the binding of the seven peptides obtained from the human CD154-binding clones and tagged with a 6 histidines tail (-His6) to the J558L CD154^+ cells. […] The cells were incubated with each of the -His6-tagged peptides and then with a phycoerythrin-conjugated secondary antibody specific for the -His6 tail. The dotted histogram is the isotopic control, whilst the black line is the binding intensity of the CD154-specific peptides [4.2=4.3=CPSGHTKAC (SEQ ID NO: 1), 4.4=CGTHSSRIC (SEQ ID NO: 2), 4.6=CLGTQNKEC (SEQ ID NO: 3), 4.7=4.12=CTPGKPHSC (SEQ ID NO: 4), 4.8=CKAASANIC (SEQ ID NO: 5), 4.10=CLPTRHMAC (SEQ ID NO: 6) and 4.11=CLSAVHNMC (SEQ ID NO: 7)]. For each experimental condition, 10,000 events were analyzed and the values are the mean and standard deviation of 3 different experiments.
(§1) The peptides were synthesized and conjugated with biotin (-bio) or with a 6-histidine tail (-his6) so as to enable in vitro and in vivo localization. […] Furthermore, a competition assay between the peptides and an anti-human CD154 fluorescein-conjugated antibody (Serotec) specifically recognizing the active site of CD154 was carried out. The J558L cells were incubated with the his6-peptides for 30 minutes at room temperature and then with anti-human CD154 fluorescein-conjugated antibody for another 30 minutes at room temperature. […] In order to identify the amino acid residues of the amino acid sequence of peptide 4.10 which are essential to the binding to CD154, three different peptides were synthesized, each one carrying a point mutation, which amino acid sequences differ from that of peptide 4.10 by replacement of the amino acid residues at positions 4, 5, 6, respectively, with one alanine residue.
The mutated peptides were not capable of recognizing human CD154 expressed at the surface of J558L cells (data not shown).
Similar results were obtained with the four modified peptides 4.101, 4.102, 4.103 e 4.104 having the amino acid sequences illustrated in table II.

HUVEC = experiment: In vitro angiogenesis: cell cord formation of HUVECs on Matrigel; format: cell-based, human; details: pre-incubated with rhsCD154 100 ng/ml for 15 minutes at 37° C.; 4 hours
Excerpt: FIGS. 7B-F show representative images of cell cord formation ability on Matrigel under the various experimental conditions mentioned above (B=unstimulated control; C=rhsCD154; D=rhsCD154+ 4.10 peptide; E=rhsCD154+ 4.10-ala peptide; F=rhsCD154+ blocking anti-CD154 antibody). Peptide 4.10 of the invention (SEQ ID NO: 6), contrary to control peptide 4.10-ala (SEQ ID NO: 8), inhibits the rhsCD154-induced ability of the endothelial cells of forming cell cords.
Furthermore, in order to evaluate the inhibitory effect, rhsCD154 (100 ng/ml) was pre-incubated for 15 minutes at 37° C. with peptide 4.10 (SEQ. ID NO: 6), or with control peptide 4.10-ala (SEQ. ID NO: 8), or with a blocking anti-human CD154 antibody. The flasks were then observed at 10× magnification for a period of 4 hours under a phase contrast inverted microscope equipped with a thermostatic chamber (at about 37° C.). The cells were photographed with a camera connected to the microscope, over the whole length of time of 4 hours at regular intervals of 15 minutes each. The migratory speed of each of the cells was calculated based on the position of the nucleus of each single cell in each single frame, using an image analysis software and, as a result, the average cell migratory speed (1 standard deviation) was calculated for each experimental condition. […] As a further confirmation of the ability of peptide 4.10 to prevent human endothelial CD40 stimulation by rhsCD154 (100 ng/ml), HUVECs (3.5×10^4) were subjected to an in vitro angiogenesis assay. HUVECs were plated on a tumor matrix (Matrigel, BD) capable of promoting the formation of super cellular organization, in a basal RPMI medium supplemented with 5% serum. Upon incubation at 37° C. under 5% CO2 for 4 hours, the cells were observed under a contrast phase inverted microscope.

[3] = system: CD40 stimulation of peripheral B cells by rhsCD154; experiment: rhsCD154-induced B cell activation (CD80 and CD86 membrane expression); format: cell-based, human
Method: The histograms of 4A show the effect of the anti-CD154 peptides and the control peptide 4.10-ala, on the activation B cells induced by stimulation with a soluble recombinant human CD154 molecule (rhsCD154). B cells were stimulated for 48 hours with rhsCD154 in the absence and in the presence of a blocking anti-human CD154 antibody or one of the seven selected peptides. Peripheral B cell activation was evaluated by flow cytometry, as the membrane expression of the co-stimulatory molecules CD80 and CD86. […] On the contrary, the activation is prevented when rhsCD154 is used in combination with a blocking anti-human CD154 antibody or with peptide 4.10 (SEQ ID NO: 6).
B cells are known to constitutively express the CD40 molecule on the cells membrane (van Kooten C. et al, J. Leukoc. Biol. 2000). Stimulation of CD40 by CD154-expressing activated T cells, results in B cells activation, proliferation and isotype switching. The inventors employed B cells isolated from whole peripheral blood of healthy donors by gradient-Ficoll centrifugation and immunomagnetical separation (MACS systems—Milteniy). The quiescent B cells thereby obtained, were then stimulated with a soluble form of human recombinant CD154 (rhsCD154) to induce activation and expression of the co-stimulatory molecules CD80 (B7-1) and CD86 (B7-2) on the cell membrane. A drastic increase in membrane expression of CD80 and CD86 on the cell surface of peripheral B cells, after stimulation for 48 hours with rhsCD154 (100 ng/ml) was observed. […] In contrast, pre-incubation for 15 minutes at 37° C. of rhsCD154 (100 ng/ml) with peptide 4.10 (SEQ. ID NO: 6), prior to lymphocyte stimulation, blocked B cells stimulation and the related expression of CD80 and CD86. […] The results are the mean±standard deviation of five different experiments. Similar results were also obtained with B cells isolated from human spleen fragments. […] These experiments were carried out on […] naive B cells, obtained from peripheral blood by negative selection, by depletion of mature lymphocytes from the B cell pool by immunomagnetic separation (MACS Systems Milteniy).

[4] = molecular target: T2, active site of human CD154 (Homo sapiens, UniProt P29965); experiment: Competition with anti-human CD154 fluorescein-conjugated antibody on J558L cells; format: binding; details: -His6 peptides 30 minutes at room temperature, then antibody
T2 construct: expressed in transfected cells; host or cells: J558L murine myeloma cell line transfected with human CD154
T2 sequence (P29965 1-261): T1 sequence (P29965 1-261)
Method: The murine myeloma cells transfected with human CD154, J558L, were incubated with each of the seven anti-CD154 peptides tagged with a 6 histidines tail (-His6), and then with the anti-CD154 fluorescein-conjugated antibody. The ability of the peptides to compete with the anti-CD154 antibody for the binding to the CD154 molecule expressed on the surface of the J558L cells was evaluated by flow cytometry, as the reduction in the fluorescence intensity compared to the positive control represented by cells incubated with the anti-human CD154 fluorescein-conjugated antibody alone. […] The amino acid sequence of the control peptide differs from that of peptide 4.10 in that an arginine residue is replaced with an alanine residue at amino acid position 5.
as §1

[5] = peptide 250 μM with rhsCD154 100 ng/ml

binding to J558L CD154+ cells [2] | Compound | binding to control J558 cells [1] | also measured
 | CSCC[C@@H]1NC(=O)[C@H](Cc2c[nH]cn2)NC(=O)[C@H](CCCNC(=N)N)NC(=O)[C@H]([C@@H](C)O)NC(=O)[C@@H]2CCCN2C(=O)[C@H](CC(C)C)NC(=O)[C@@H](N)CSSC[C@@H](C(=O)O)NC(=O)[C@H](C)NC1=O [peptide 4.10, CLPTRHMAC] (H-CLPTRHMAC-OH; disulfide 1-9) |  | platelet aggregation induced by ADP 0.5 μM after priming (human platelets; priming 10 minutes at 37° C., peptide 60 μM with CD154): did not enhance platelet aggregation; activation of human platelet aggregation with thrombin at a subliminal dose (human platelets; thrombin 0.3 U/ml): inactive
capable of specifically binding | CGTHSSRIC (disulfide 1-9 (inferred)) [4.4] | not capable of binding | 
capable of specifically binding | CKAASANIC (disulfide 1-9 (inferred)) [4.8] | not capable of binding | 
capable of specifically binding | CLGTQNKEC (disulfide 1-9 (inferred)) [peptide 4.6] | not capable of binding | effect on rhsCD154-induced formation of vessel-like cell cords on Matrigel (HUVEC): not capable of significantly reducing the stimulation of endothelial CD40; expression of CD80 compared to basal levels [3, 5]: 117%; expression of CD86 compared to basal levels [3, 5]: 122%; competition with anti-human CD154 fluorescein-conjugated antibody specific for the active site of CD154 [4]: do not specifically bind to the active site
capable of specifically binding | CLSAVHNMC (disulfide 1-9 (inferred)) [peptide 4.11] | not capable of binding | effect on rhsCD154-induced formation of vessel-like cell cords on Matrigel (HUVEC): not capable of significantly reducing the stimulation of endothelial CD40; inhibition of rhsCD154-induced B cell activation (CD80 and CD86 expression) ([3]; 250 μM): not stably reproducible; competition with anti-human CD154 fluorescein-conjugated antibody specific for the active site of CD154 [4]: do not specifically bind to the active site
capable of specifically binding | CPSGHTKAC (disulfide 1-9 (inferred)) [4.2=4.3] | not capable of binding | 
capable of specifically binding | CTPGKPHSC (disulfide 1-9 (inferred)) [4.7=4.12] | not capable of binding | 

Compound | binding to J558L CD154+ cells [2] | binding to control J558 cells [1] | also measured
CIPTRHMAC (binding protein) [4.101, modified form of peptide 4.10] | None of these peptides proved to be capable of binding |  | 
CIPTRHMVC (binding protein) [4.103, modified form of peptide 4.10] | None of these peptides proved to be capable of binding |  | 
CLPSRHMAC (binding protein) [4.102, modified form of peptide 4.10] | None of these peptides proved to be capable of binding |  | 
CLPTRWMAC (binding protein) [4.104, modified form of peptide 4.10] | None of these peptides proved to be capable of binding |  | 
